≈ marks a conversion by molar mass, not a printed value. Calls of active or inactive are those of the source. The rule behind the calls is not given here.
Each molecule was assayed on Escherichia coli (assay: microbe, parasite or virus in culture). Settings: GR501, 20 h.
Format: functional

Compound | MIC [µg/mL]
C=CCOc1ccccc1C(=O)NO | 0.5 (≈ 2.59 µM)
O=C(NO)c1ccccc1OCC(O)Cn1cc(-c2ccccc2)nn1 (centres undefined) | 1 (≈ 2.82 µM)

Tested on: Escherichia coli
Experiment: microbe, parasite or virus in culture
Format: functional
Settings: GR501, 20 h
Remark: another data set of the same source

Compound | MIC [µg/mL]
CCCCCCOc1c(C(=O)NO)ccc2ccccc12 | > 200
C=CCOc1ccc(C(=O)NO)c(OCC=C)c1 | 400 (≈ 1600 µM)
C#CCOc1ccc(OCC=C)c(C(=O)NO)c1 | 400 (≈ 1620 µM)
C=CCOc1ccc(OCc2ccc(Br)cc2)cc1C(=O)NO | 800 (≈ 2120 µM)
C=CCOc1ccc(OCc2cc(Cl)ccc2Cl)cc1C(=O)NO | 400 (≈ 1090 µM)
C=CCOc1ccccc1C(=O)NO | 10 (≈ 51.8 µM)
O=C(NO)c1ccccc1OCC(O)Cn1cc(-c2ccccc2)nn1 (centres undefined) | 18 (≈ 50.8 µM)
C=CCOc1ccc(OCC=C)c(C(=O)NO)c1 | 150 (≈ 602 µM)
C=CCOc1ccc(OCc2ccccc2)cc1C(=O)NO | 800 (≈ 2670 µM)
C=CCOc1cc(OCc2ccc(Br)cc2)ccc1C(=O)NO | 800 (≈ 2120 µM)
O=C(NO)c1ccc2ccccc2c1OCc1ccc(Cl)c(Cl)c1 | > 200

What follows are molecules tested on Escherichia coli (assay: not given). Settings: not given.

Compound | MIC
C=CCOc1cccc(C(=O)NO)c1OCC=C | inactive
O=C(NO)c1ccccc1OCc1ccc(Cl)c(Cl)c1 | inactive
C=CCOc1cc(OCc2cc(Cl)ccc2Cl)ccc1C(=O)NO | inactive
O=C(NO)c1ccccc1OCc1cccc(Cl)c1 | inactive
O=C(NO)c1ccc2ccccc2c1OCc1cccc(Cl)c1 | inactive
C=CCOc1c(OCc2ccccc2)cccc1C(=O)NO | inactive

Reference: ChEMBL document CHEMBL3217442, “Synthesis and bioevaluation of aryl hydroxamates distinguishing between NAD+ and ATP-dependent DNA ligases” (Medchemcomm, 2012)
